From ChEMBL document CHEMBL1154015, “Structural and theoretical studies of [6-bromo-1-(4-fluorophenylmethyl)-4(1H)-quinolinon-3-yl)]-4-hydroxy-2-oxo-3-butenoïc acid as HIV-1 integrase inhibitor” (Bioorg Med Chem Lett, 2009) come the findings set out here.

The nature of data set [1]: Cytotoxicity against HIV1 NL4-3 infected human TZM-bl cells assessed as reduction in cell viability after 3 days by WST1 assay. It counts as cell-based. The conditions noted are these: HIV1 NL4-3 infected TZM-bl cells. (Tetrazolium assays rely on reduction of a dye to a coloured formazan, in cell work by metabolically active cells.)
A short description of data set [2]: Selectivity index, ratio of CC50 for human TZM-bl cells to EC50 for HIV1 NL4-3. It counts as toxicity, cell-based. The conditions noted are these: read-out: Ratio CC50/EC50.
For data set [3], the target named is T1, Human immunodeficiency virus type 1 integrase (Human immunodeficiency virus 1, UniProt Q7ZJM1). The data set can be described thus: Inhibition of HIV1 integrase strand transfer activity expressed in Escherichia coli BL21 (DE3) by gel based assay in presence of magnesium.
T1 sequence (Q7ZJM1 whole entry): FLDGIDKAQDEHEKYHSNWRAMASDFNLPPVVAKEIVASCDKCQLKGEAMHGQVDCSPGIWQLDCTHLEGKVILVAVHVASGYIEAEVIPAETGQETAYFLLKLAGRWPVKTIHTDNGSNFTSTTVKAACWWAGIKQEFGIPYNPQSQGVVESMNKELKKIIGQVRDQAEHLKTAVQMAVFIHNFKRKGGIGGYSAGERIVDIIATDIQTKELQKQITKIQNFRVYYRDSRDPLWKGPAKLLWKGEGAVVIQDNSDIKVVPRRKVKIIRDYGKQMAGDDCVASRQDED
The target of data set [4] is T1, Human immunodeficiency virus type 1 integrase. As to the kind of experiment: Inhibition of HIV1 integrase 3'-processing activity expressed in Escherichia coli BL21 (DE3) by gel based assay in presence of magnesium.
The test system of data set [5] is Human immunodeficiency virus 1. As to the kind of experiment: Antiviral activity against HIV1 NL4-3 infected in human TZM-bl cells treated 4 hrs before infection measured after 48 hrs postinfection by beta-D-galactopyranoside assay. It counts as functional, organism-based. The conditions noted are these: Human immunodeficiency virus 1, NL4-3, TZM-bl.

Structures are written as SMILES.

Usually CC50 stands for the concentration that lowers cell viability or growth by half. A word on the IC50: it is the point on the concentration scale where inhibition reaches its midpoint. By EC50 is commonly meant the concentration giving half of the maximal effect. For `CCOC(=O)C(=O)CC(=O)c1cn(Cc2ccc(F)cc2)c2ccc(Br)cc2c1=O`, the CC50 at 72 h in data set [1] is > 1000 µM. Also, the selectivity ratio in data set [2] is > 59. Besides, the IC50 in data set [3] was 0.12 µM; in data set [4], 78 µM. In addition, the midpoint of the response in data set [5], the EC50, lay at 17 µM.

In the case of `O=C(O)C(=O)CC(=O)c1cn(Cc2ccc(F)cc2)c2ccc(Br)cc2c1=O`, the CC50 at 72 h in data set [1] was > 1000 µM. The selectivity ratio in data set [2] was > 250. Also, the IC50 in data set [3] stood at 0.03 µM; in data set [4], 1.6 µM. Further, the EC50 in data set [5] came to 4 µM.
